Assay results as given in patent publication US7309701B2, “Pyridazinone derivatives as pharmaceuticals and pharmaceutical compositions containing them” (Sanofi-Aventis Deutschland GmbH, priority 2002, dated 2007).

How the values were obtained:
[1] = system: Tau protein; test: Tau-phosphorylation: inhibition of phosphorylation of the Tau protein in adult rat cortex sections; format: cell-based; settings: inhibition of Tau phosphorylation (Ser396/404, antibody AD2), 2 h incubation at 37° C.
Description: The compounds' activities were determined by measuring the inhibition of phosphorylation of the Tau protein in adult rat cortex sections. The cortex sections having a thickness of 300 μm were prepared from 8-10-week old male OFA rats (Iffa-Credo), sacrificed by decapitation. They were incubated in 5 ml of DMEM medium containing pyruvate and glucose 4.5 g/l at 37° C. for 40 min. The sections were then washed twice with the medium, distributed into microtubes (50 μl in 500 μl of medium with or without test compounds), and incubated at 37° C., with stirring. Two hours later, the experiment was stopped by centrifugation. The sections were washed, sonicated and centrifuged at 18300 g, for 15 min at 4° C. The concentration of proteins in supernatant was determined by a commercial assay (BCA Protein Assay, Pierce) based on the Lowry method. The samples, denatured beforehand for 10 min at 70° C., were separated on a 4-12% Bis-Tris vertical gel in the presence of MOPS-SDS buffer and electrotransferred onto nitrocellulose membrane. Immunolabeling was performed with their monoclonal antibody AD2 which specifically recognizes the phosphorylated epitopes Ser396/404 of the Tau protein. The immunoactive proteins were visualized by adding a second antibody directed against the mouse IgG's and coupled to peroxidase and a chemiluminescent substrate. The autoradiograms obtained were finally quantified using the ‘GeneTools’ software from Syngene (GeneGnome, Ozyme) in order to determine an IC50.

[2] = target: human recombinant GSK-3β (Homo sapiens, UniProt P49841); test: GSK-3β activity, AlphaScreen with primed glycogen synthase substrate peptide; format: biochemical; settings: human recombinant GSK-3β, 10 μM ATP, 60 min at room temperature, AlphaScreen; read-out: IC50
Description: GSK-β activity was measured using human recombinant GSK-3β and a primed (pre-phosphorylated) substrate peptide (derived from glycogen synthase and containing the phosphorylation sites 3a, b, and c) on basis of the AlphaScreen technology in 384-well plate format (small volume plate, white, GREINER).

Sequence of human recombinant GSK-3β (P49841 whole entry): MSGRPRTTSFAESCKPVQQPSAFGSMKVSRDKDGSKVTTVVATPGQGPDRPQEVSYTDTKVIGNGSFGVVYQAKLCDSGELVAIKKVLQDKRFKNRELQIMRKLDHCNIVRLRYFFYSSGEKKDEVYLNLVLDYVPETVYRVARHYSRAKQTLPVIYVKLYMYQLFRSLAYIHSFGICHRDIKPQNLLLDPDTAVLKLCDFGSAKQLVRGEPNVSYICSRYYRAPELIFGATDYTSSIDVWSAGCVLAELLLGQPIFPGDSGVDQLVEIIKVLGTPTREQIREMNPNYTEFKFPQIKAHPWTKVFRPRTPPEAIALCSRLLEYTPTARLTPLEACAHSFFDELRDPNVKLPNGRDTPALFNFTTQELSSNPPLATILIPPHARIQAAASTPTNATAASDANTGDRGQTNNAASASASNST

| IC50 [1] [µM] | melting point | IC50 [2] [µM] | Structure (SMILES) |
| --- | --- | --- | --- |
| 9 | 254 °C |  | O=C(NCc1ccncc1)c1cc(-c2ccncc2)n[nH]c1=O [Example 8, 3-oxo-6-pyridin-4-yl-N-(pyridin-4-ylmethyl)-2,3-dihydropyridazine-4-carboxamide] |
| 3.5 | 265 °C |  | O=C(NCc1ccc(Cl)c(Cl)c1)c1cc(-c2ccncc2)n[nH]c1=O [Example 16, N-(3,4-dichlorobenzyl)-3-oxo-6-pyridin-4-yl-2,3-dihydropyridazine-4-carboxamide] |
|  | 252 °C | 0.251 | O=C(NCc1ccc(N2CCOCC2)cc1)c1cc(-c2ccncc2)n[nH]c1=O [Example 17, N-(4-morpholin-4-ylbenzyl)-3-oxo-6-pyridin-4-yl-2,3-dihydropyridazine-4-carboxamide] |
| 22 | 233 °C | 0.72 | O=C(NCc1ccc(Cl)cc1Cl)c1cc(-c2ccncc2)n[nH]c1=O [Example 2, N-(2,4-dichlorobenzyl)-3-oxo-6-pyridin-4-yl-2,3-dihydropyridazine-4-carboxamide] |
| 1.1 |  | 0.095 | O=C(NCCCc1ccccc1)c1cc(-c2ccncc2)n[nH]c1=O [Example 66, 3-Oxo-6-pyridin-4-yl-2,3-dihydro-pyridazine-4-carboxylic acid (3-phenyl-propyl)-amide; compoundwith trifluoro-aceticacid] |
|  | 262 °C | 0.097 | O=C(NCc1cccnc1)c1cc(-c2ccncc2)n[nH]c1=O [Example 14, 3-oxo-6-pyridin-4-yl-N-(pyridin-3-ylmethyl)-2,3-dihydropyridazine-4-carboxamide] |
| 19 |  | > 10 | Cc1cc(-c2cc(C(=O)NCc3ccc(Cl)cc3)c(=O)[nH]n2)cc(C)c1O [Example 52, 6-(4-Hydroxy-3,5-dimethyl-phenyl)-3-oxo-2,3-dihydro-pyridazine-4-carboxylic acid 4-chloro-benzylamide] |
| 19 |  | 4.4 | O=C(NCc1ccc(Cl)cc1)c1cc(-c2cccc(O)c2)n[nH]c1=O [Example 53] |
|  | 209 °C |  | CCCCNC(=O)c1cc(-c2ccncc2)n[nH]c1=O [Example 12, 3-oxo-6-pyridin-4-yl-N-(n-butyl)-2,3-dihydropyridazine-4-carboxamide] |
| 0.24 |  |  | CNc1nccc(-c2cc(C(=O)NCc3ccc(Cl)cc3)c(=O)[nH]n2)n1 [Example 34, 6-(2-Methylamino-pyrimidin-4-yl)-3-oxo-2,3-dihydro-pyridazine-4-carboxylic acid 4-chloro-benzylamide] |
| 22 |  |  | O=C(NCc1ccc(Cl)cc1Cl)c1cc(-c2ccc(O)cc2)n[nH]c1=O [Example 22, N-(2,4-Dichlorbenzyl)-3-oxo-6-[4-(hydroxy)phenyl]-2,3-dihydropyridazine-4-carboxylic acid] |
| 13 | 250 °C | 0.18 | O=C(NCc1ccc(Cl)cc1)c1cc(-c2ccncc2)n[nH]c1=O [Example 4, N-(4-chlorobenzyl)-3-oxo-6-pyridin-4-yl-2,3-dihydropyridazine-4-carboxamide] |
|  | ~ 258 °C |  | O=C(NCc1ccc(Cl)cc1Cl)c1cc(-c2ccccc2)n[nH]c1=O [Example 1, N-(2,4-dichlorobenzyl)-3-oxo-6-phenyl-4-yl-2,3-dihydropyridazine-4-carboxamide] |
|  | 180 °C |  | CCOC(=O)CCNC(=O)c1cc(-c2ccncc2)n[nH]c1=O [Example 13, Ethyl 3-[(3-oxo-6-pyridin-4-yl-2,3-dihydropyridazine-4-carbonyl)amino]propionate] |
| 2.2 |  |  | O=C(NCc1ccc(Cl)cc1)c1cc(Cl)n[nH]c1=O [Example 43, 6-Chloro-3-oxo-2,3-dihydro-pyridazine-4-carboxylic acid 4-chloro-benzylamide] |
| 9.5 | 227 °C |  | O=C(NCc1ccc(C(F)(F)F)cc1)c1cc(-c2ccncc2)n[nH]c1=O [Example 10, 3-oxo-6-pyridin-4-yl-N-[4-(trifluoromethyl)benzyl]-2,3-dihydropyridazine-4-carboxamide] |
| 0.3 |  | 2.8 | O=C(NCc1ccc(Cl)cc1)c1cc(-c2ccc(O)cc2)n[nH]c1=O [Example 40, 6-(4-Hydroxy-phenyl)-3-oxo-2,3-dihydro-pyridazine-4-carboxylic acid 4-chloro-benzylamide] |

| Structure (SMILES) | IC50 [1] [µM] | melting point | IC50 [2] [µM] |
| --- | --- | --- | --- |
| O=C(NCc1ccccc1)c1cc(-c2ccc(O)cc2)n[nH]c1=O [Example 19, N-benzyl-3-oxo-6-[4-(hydroxy)phenyl]-2,3-dihydropyridazine-4-carboxamide] | 4.1 |  |  |
